Broadly, the inhibition is the relative decrease from the control value, in per cent.

Each structure is given as a SMILES string.

The assay deals with Telomerase reverse transcriptase (Homo sapiens) (UniProt O14746). Description: Inhibition of telomerase at 10 uM after 30 mins by TRAP assay.
Chain of Telomerase reverse transcriptase (Homo sapiens) (O14746 whole entry): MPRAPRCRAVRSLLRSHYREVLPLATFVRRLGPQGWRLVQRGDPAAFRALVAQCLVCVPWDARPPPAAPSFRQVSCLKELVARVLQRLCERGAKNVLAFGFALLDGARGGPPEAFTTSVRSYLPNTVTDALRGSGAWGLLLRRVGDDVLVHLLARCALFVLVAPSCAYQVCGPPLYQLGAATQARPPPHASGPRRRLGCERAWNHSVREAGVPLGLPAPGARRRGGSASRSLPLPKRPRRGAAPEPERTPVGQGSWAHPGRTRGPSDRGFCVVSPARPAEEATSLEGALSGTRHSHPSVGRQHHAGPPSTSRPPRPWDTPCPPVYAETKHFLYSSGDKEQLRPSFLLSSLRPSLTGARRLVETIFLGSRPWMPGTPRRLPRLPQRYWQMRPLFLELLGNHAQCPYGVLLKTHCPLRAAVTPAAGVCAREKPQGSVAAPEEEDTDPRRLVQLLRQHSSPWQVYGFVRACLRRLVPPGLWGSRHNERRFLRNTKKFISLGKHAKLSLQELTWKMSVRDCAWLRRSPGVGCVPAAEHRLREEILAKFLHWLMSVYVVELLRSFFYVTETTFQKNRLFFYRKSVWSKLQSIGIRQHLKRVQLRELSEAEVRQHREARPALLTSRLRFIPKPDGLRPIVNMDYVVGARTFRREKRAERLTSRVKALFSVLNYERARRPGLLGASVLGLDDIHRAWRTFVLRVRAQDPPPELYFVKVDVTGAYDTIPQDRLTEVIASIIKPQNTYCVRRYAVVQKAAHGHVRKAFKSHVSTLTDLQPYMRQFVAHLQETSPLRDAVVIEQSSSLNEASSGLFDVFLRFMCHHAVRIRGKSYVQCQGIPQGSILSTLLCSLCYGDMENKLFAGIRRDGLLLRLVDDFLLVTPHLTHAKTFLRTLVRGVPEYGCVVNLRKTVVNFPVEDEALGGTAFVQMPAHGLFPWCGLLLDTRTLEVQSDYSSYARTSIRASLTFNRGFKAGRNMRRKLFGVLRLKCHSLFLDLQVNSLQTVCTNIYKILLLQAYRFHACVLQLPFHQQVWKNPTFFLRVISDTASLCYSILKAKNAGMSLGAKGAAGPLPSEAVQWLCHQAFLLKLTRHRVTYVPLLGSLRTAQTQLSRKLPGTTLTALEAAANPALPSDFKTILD
Regarding `CN(C)CCCn1c(=O)c2cc3cc(CCN4CCCCC4)c4cc5c(=O)n(CCCN(C)C)c(=O)c6cc7cc(CCN8CCCCC8)c8cc(c1=O)c2c1c3c4c(c65)c7c81`, the inhibition worked out at 52%.
`CN1CCN(CCc2cc3cc4c(=O)n(CCN5CCCCC5)c(=O)c5cc6c(CCN7CCN(C)CC7)cc7cc8c(=O)n(CCN9CCCCC9)c(=O)c9cc2c2c3c(c45)c6c7c2c89)CC1` gave an inhibition of 44%.
In turn, `O=c1c2cc3cc(CCN4CCCCC4)c4cc5c(=O)n(CCN6CCCCC6)c(=O)c6cc7cc(CCN8CCCCC8)c8cc(c(=O)n1CCN1CCCCC1)c2c1c3c4c(c65)c7c81` gave an inhibition of 38%.
The result for `CN(C)CCCn1c(=O)c2cc3cc(CCN4CCN(C)CC4)c4cc5c(=O)n(CCCN(C)C)c(=O)c6cc7cc(CCN8CCN(C)CC8)c8cc(c1=O)c2c1c3c4c(c65)c7c81` reads 66%.

The record behind these values is ChEMBL document CHEMBL1139050, “Specific interactions with intra- and intermolecular G-quadruplex DNA structures by hydrosoluble coronene derivatives: a new class of telomerase inhibitors” (Bioorg Med Chem, 2007).
